Data on 17 compounds can be found in PubChem BioAssay (NCI).

Assay in all cases: growth of human tumour cells (NCI), 48 h
For assay [1], the system named is UO-31 renal.
The test system of assay [2] is A549 NSCLC.
Assay [3] has as its system EKVX NSCLC.
Assay [4] has as its system SNB-75 CNS.
Assay [5] has as its system PC-3 prostate.
In assay [6] the test system is MCF7 breast.
Assay [7] concerns ACHN renal.
In assay [8] the test system is NCI-H460 lung.
Assay [9] deals with SF-268 CNS.
In assay [10] the test system is SF-295 CNS.

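Interpolation was linear, between the two tested concentrations surrounding the appropriate level; five concentrations were tested over 48 hours in 96-well plates. At the GI50, growth is halved. Definition used: TGI = concentration required for complete inhibition of growth.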 Where only a bound is given, the exact number is not on record here.

In the case of `C=C(C)[C@@H]1CC[C@]2(C)[C@H](CC[C@@H]3[C@@H]([C@@](C)(O)CCC=C(C)C)CC[C@]32C)[C@@]1(C)CCC(=O)O`, the GI50 in [1] is 15700 nM; in assay [2] it was 23.3 µM; in assay [3], 24200 nM; in assay [4], 15.3 µM; in [5] it was 11.3 µM; in assay [6], 19700 nM. For the same compound, the GI50 is 21.7 µM in [7], 31.9 µM in assay [8], 16.1 µM in assay [9] and 17700 nM in assay [10]. The TGI in assay [1] came to 29.4 µM; in assay [2], 91.9 µM; in assay [3], 59.6 µM; in assay [4], 34.8 µM; in assay [5] it was 27.2 µM; in assay [6], 49.3 µM. Further, the TGI is 54.3 µM in [7], above 100 µM in assay [8], 32.8 µM in assay [9] and 32.2 µM in assay [10].
Turning to `COC(=O)C(=O)CC(=O)c1cccc(OC)c1`, the TGI in assay [1], in assay [2], in assay [3], in assay [4], in assay [5] and in [6] was above 100 µM each time. Also, the TGI in assay [7], in assay [8], in assay [9] and in [10] was above 100 µM throughout.
Turning to `COc1cc2c3c(n(CCCN(C)CCO)c(=O)c2cc1OC)-c1cc2c(cc1C3=O)OCO2`, the GI50 was 3410 nM in assay [1]; 9.49 µM in assay [2]; above 44400 nM in assay [3]; 8.47 µM in assay [5]; above 28300 nM in [6]; 0.277 µM in [7]. Further, the values for the GI50 in [8], in [9] and in [10] were 1.89 µM, above 22.1 µM and 672 nM, respectively. Further, the TGI was above 57.9 µM in [1]; above 100 µM in assay [2]; above 100 µM in assay [3]; above 58.5 µM in assay [4]; above 62.6 µM in assay [5]; above 100 µM in assay [6]. For the same compound, the TGI was 4.33 µM in [7], above 100 µM in [8], above 100 µM in [9] and above 100 µM in assay [10].
Take `Oc1ccc(N=Nc2nccs2)c(O)c1`: the GI50 is 3510 nM in assay [1]; 5.11 µM in [2]; 2100 nM in assay [3]; 14.2 µM in [4]; 8.08 µM in [5]; 3060 nM in assay [6]. For the same compound, the GI50 in [7] was 2.96 µM; in assay [8] it was 3.67 µM; in [9], 4.35 µM; in assay [10], 2730 nM. Further, the TGI was 21.8 µM in assay [1]; 54.4 µM in assay [2]; 15.3 µM in assay [3]; above 100 µM in assay [4]; 48.8 µM in [5]; 15.1 µM in assay [6]. Further, the TGI in [7] worked out at 33.8 µM; in assay [8] it was 17.9 µM; in assay [9] it was 38.7 µM; in [10], 15.1 µM.
In the case of `CN1C(NNC(=O)c2cccnc2)=NS(=O)(=O)c2cc(Cl)ccc21`, the GI50 in [1] was above 100000 nM; in assay [2], above 100 µM; in [3] it was above 100000 nM; in assay [4] it was above 100 µM; in assay [5], above 100 µM; in assay [6], above 100000 nM. In addition, the GI50 in assay [7] was above 100 µM; in assay [8] it was above 100 µM; in [9] it was above 100 µM; in assay [10], above 100000 nM. Besides, the TGI in assay [1], in [2], in assay [3], in assay [4], in assay [5] and in [6] was above 100 µM each time. Also, the TGI in [7], in assay [8], in assay [9] and in [10] was above 100 µM each time.
For the compound `Oc1ccc(Oc2cnc3ccccc3n2)cc1`, the GI50 in [1] is 66600 nM; in [2], above 100 µM; in assay [3], 67000 nM; in assay [4], 60 µM; in assay [5] it was 54.7 µM; in assay [6] it was above 100000 nM. Moreover, the GI50 is 76.6 µM in assay [7], above 100 µM in [8], 50.3 µM in assay [9] and 38200 nM in assay [10]. In addition, the TGI in [1], in assay [2], in assay [3], in [4], in [5] and in [6] was above 100 µM each time. Also, the TGI in assay [7], in [8], in assay [9] and in assay [10] was above 100 µM in each case.
Take `O=C1c2ccccc2C(=O)c2c(NCCN=Cc3ccccc3O)cccc21`: the GI50 in [1] was 2510 nM; in [2] it was 4.69 µM; in assay [3] it was 1790 nM; in [4], 2.33 µM; in [5] it was 2.18 µM; in [6], 1570 nM. In addition, the GI50 in assay [7] is 3.4 µM; in assay [8] it was 2.18 µM; in assay [9], 2.7 µM; in [10] it was 2430 nM. Moreover, the TGI in assay [1] came out at 11 µM; in [2] it was 14.4 µM; in assay [3], 5.44 µM; in assay [4] it was 7.6 µM; in assay [5] it was 8.1 µM; in assay [6] it was 5.27 µM. The TGI in [7] was determined as 16.3 µM; in assay [8], 6.91 µM; in assay [9], 14.9 µM; in assay [10], 5.01 µM.
`Cc1noc2c1-c1ccccc1C(c1ccc(Cl)cc1)=N[C@H]2CC(N)=O`: the GI50 in assay [1] was 283 nM; in assay [2], 18.3 µM; in assay [3], 14000 nM; in [4] it was 0.134 µM; in [5] it was 12 µM; in assay [6] it was 732 nM. In addition, the GI50 in [7] is 6.37 µM; in [8] it was 16.7 µM; in assay [9], 33.8 µM; in [10], 4710 nM. The TGI in [1], in [2], in assay [3], in [4], in assay [5] and in assay [6] was above 100 µM each time. The TGI in assay [7], in assay [8], in assay [9] and in assay [10] was above 100 µM each time.
On to `CC(Cl)CN1c2ccccc2Sc2ccc(Cl)cc21` (stereo not drawn), for which the TGI in assay [1], in [2], in assay [3], in [4], in assay [5] and in assay [6] was above 10 µM in each case. The TGI in assay [7], in assay [8], in assay [9] and in assay [10] was above 10 µM throughout.
Consider `Cc1sc2c(c1C)C(c1ccc(Cl)cc1)=N[C@@H](CC(=O)Nc1ccc(OCCOCCOCCOCCNc3cccc4c3C(=O)N(C3CCC(=O)NC3=O)C4=O)cc1)c1nnc(C)n1-2` (stereo partly drawn), for which the GI50 in assay [1] is 280 nM; in assay [2] it was 0.338 µM; in assay [3], 409 nM; in assay [4], below 0.01 µM; in [5] it was below 0.02 µM; in [6] it was below 16.6 nM. Further, the GI50 in [7] is 0.753 µM; in assay [8], 2.13 µM; in assay [9] it was 0.254 µM; in assay [10] it was 234 nM. Moreover, the TGI in assay [1], in assay [2], in [3], in assay [5], in [6] and in assay [7] was above 100 µM each time. The TGI in [8], in assay [9] and in [10] was above 100 µM each time.
With `CC1=NC(C)(COC(=O)C2(C)NC(C)(CO)CO2)COC1=O` (stereo not drawn), the TGI in assay [1], in [2], in assay [3], in assay [4], in assay [5] and in assay [6] was above 100 µM each time. Moreover, the TGI in assay [7], in assay [8], in [9] and in [10] was above 100 µM throughout.
Consider `CCc1nc(Cl)c(Cl)c(Cl)n1`, for which the TGI in [1], in [2], in [3], in assay [4], in [5] and in [6] was above 100 µM throughout. Further, the TGI in assay [7], in [8], in assay [9] and in [10] was above 100 µM in each case.
Regarding `NC(N)=N/N=C(\N=Nc1ccccc1)c1ccc(Cl)cc1`, the GI50 was 2290 nM in assay [1]; 4.25 µM in assay [2]; 2550 nM in assay [3]; 4.67 µM in [4]; 2.48 µM in [5]; 2430 nM in [6]. Besides, the GI50 is 2.51 µM in [7], 3.13 µM in assay [8], 3.53 µM in [9] and 1820 nM in [10]. Besides, the TGI in assay [1] stood at 6.34 µM; in assay [2], 18.5 µM; in [3], 13.5 µM; in assay [4], 17.8 µM; in assay [5], 11.3 µM; in [6], 14.2 µM. Further, the TGI in assay [7] came to 8.06 µM; in assay [8] it was 16.5 µM; in assay [9], 15.7 µM; in [10], 6.39 µM.
Turning to `COc1ccc(/C=C/c2cnccn2)cc1OC`, the TGI in assay [1], in assay [2], in assay [3], in assay [4], in assay [5] and in [6] was above 10 µM throughout. The TGI in assay [7], in assay [8], in [9] and in assay [10] was above 10 µM throughout.
Regarding `Cc1c2c(C(N)=O)nccc2c(C)c2c1c1ccccc1n2Cc1ccccc1`, the TGI in assay [1] is 37.6 µM; in assay [2] it was 35.4 µM; in [3] it was above 100 µM; in assay [4] it was 39.9 µM; in assay [5], 27.7 µM; in [6], above 100 µM. In addition, the TGI was found to be 37.5 µM in [7], 28.8 µM in assay [8], 97.5 µM in assay [9] and 31.2 µM in assay [10].
For the compound `O=C(NNc1cnccn1)c1nc2cc(F)ccc2n2cccc12`, the GI50 in assay [1] is 261 nM; in assay [2], 0.542 µM; in assay [3] it was 387 nM; in assay [4], 1.31 µM; in assay [5], 0.527 µM; in [6], 336 nM. Besides, the GI50 was 0.362 µM in assay [7], 0.403 µM in assay [8], 0.551 µM in assay [9] and 531 nM in [10]. The TGI was above 100 µM in [1]; above 100 µM in [2]; above 100 µM in assay [3]; above 30.4 µM in [4]; above 100 µM in assay [5]; above 100 µM in assay [6]. In addition, the TGI in [7], in assay [8], in assay [9] and in assay [10] was above 100 µM in each case.
Regarding `COc1ccc(-c2nn(-c3cccc(Cl)c3)cc2-c2nc(N)[nH]c(=O)c2C#N)cc1`, the GI50 in [1] was 2940 nM; in assay [2] it was 5.13 µM; in assay [3] it was 3290 nM; in assay [4], 2.88 µM; in assay [5] it was 6.3 µM; in assay [6], 3540 nM. Further, the GI50 is 9.92 µM in [7], 6 µM in assay [8], 5.86 µM in [9] and 2360 nM in assay [10]. The TGI in [1] is 47.8 µM; in assay [2] it was 50.8 µM; in assay [3] it was 35.4 µM; in [4], 21.1 µM; in assay [5] it was above 100 µM; in assay [6], 28.5 µM. Moreover, the TGI in assay [7] is above 100 µM; in [8], 27.7 µM; in assay [9] it was 35.4 µM; in assay [10], 9.23 µM.
